What was measured:
Type in all cases: in vivo
[1] = system: Kochia (Kochia scoparia); experiment: Test A preemergence; details: Preemergence; for Plant response rating, Kochia: 125 g ai/ha, visual injury after approximately 10 d, 0 to 100 scale where 0 is no effect and 100 is complete control; for Kochia plant response rating (0 to 100 scale, 0 is no effect, 100 is complete control): 500 g ai/ha, visual injury approx. 10 d
Method in brief: (§1)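 Compounds were formulated in a non-phytotoxic solvent mixture with surfactant and applied as a preemergence directed soil spray after seeding, or sprayed postemergence over plants 2 to 10 cm tall at the one- to two-leaf stage. Evaluation after about 10 d compared treated with untreated controls, using a scale from 0 (no effect) to 100 (complete control).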

[2] = system: barnyardgrass (Echinochloa crus-galli); experiment: Test A preemergence; details: Preemergence; for Plant response rating, Barnyardgrass: 125 g ai/ha, visual injury after approximately 10 d, 0 to 100 scale where 0 is no effect and 100 is complete control; for Barnyardgrass plant response rating (0 to 100 scale, 0 is no effect, 100 is complete control): 500 g ai/ha, visual injury approx. 10 d
Method in brief: as §1

[3] = system: giant foxtail (Setaria faberii); experiment: Test A preemergence; details: Preemergence; for Plant response rating, Foxtail, Giant: 125 g ai/ha, visual injury after approximately 10 d, 0 to 100 scale where 0 is no effect and 100 is complete control; for Foxtail, Giant plant response rating (0 to 100 scale, 0 is no effect, 100 is complete control): 500 g ai/ha, visual injury approx. 10 d
Method in brief: as §1

[4] = system: pigweed (Amaranthus retroflexus); experiment: Test A preemergence; details: Preemergence; for Plant response rating, Pigweed: 125 g ai/ha, visual injury after approximately 10 d, 0 to 100 scale where 0 is no effect and 100 is complete control; for Pigweed plant response rating (0 to 100 scale, 0 is no effect, 100 is complete control): 500 g ai/ha, visual injury approx. 10 d
[5] = system: ragweed (common ragweed, Ambrosia elatior); experiment: Test A preemergence; details: Preemergence; for Plant response rating, Ragweed: 125 g ai/ha, visual injury after approximately 10 d, 0 to 100 scale where 0 is no effect and 100 is complete control; for Ragweed plant response rating (0 to 100 scale, 0 is no effect, 100 is complete control): 500 g ai/ha, visual injury approx. 10 d
Method in brief: as §1

[6] = system: ryegrass, Italian (Italian ryegrass, Lolium multiflorum); experiment: Test A preemergence; details: Preemergence; for Plant response rating, Ryegrass, Italian: 125 g ai/ha, visual injury after approximately 10 d, 0 to 100 scale where 0 is no effect and 100 is complete control; for Ryegrass, Italian plant response rating (0 to 100 scale, 0 is no effect, 100 is complete control): 500 g ai/ha, visual injury approx. 10 d
Method in brief: as §1

[7] = system: Galium (catchweed bedstraw, Galium aparine); experiment: Test A postemergence
Method in brief: as §1

[8] = system: Kochia (Kochia scoparia); experiment: Test A postemergence
Method in brief: as §1

[9] = system: barnyardgrass (Echinochloa crus-galli); experiment: Test A postemergence
Method in brief: as §1

[10] = system: blackgrass (Alopecurus myosuroides); experiment: Test A postemergence
Method in brief: as §1

[11] = system: corn (Zea mays); experiment: Test A postemergence
Method in brief: as §1

[12] = system: giant foxtail (Setaria faberii); experiment: Test A postemergence
Method in brief: as §1

[13] = system: pigweed (Amaranthus retroflexus); experiment: Test A postemergence
Method in brief: as §1

[14] = system: ragweed (common ragweed, Ambrosia elatior); experiment: Test A postemergence
Method in brief: as §1

[15] = system: ryegrass, Italian (Italian ryegrass, Lolium multiflorum); experiment: Test A postemergence
Method in brief: as §1

[16] = system: wheat (Triticum aestivum); experiment: Test A postemergence
Method in brief: as §1

[17] = system: barnyardgrass (Echinochloa crus-galli); experiment: Test B flooded paddy test; details: Flood, 250 g ai/ha; 0 to 100 scale where 0 is no effect and 100 is complete control; 13 to 15 d
Method in brief: (§2)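 Greenhouse paddy pots with 2-leaf stage plants received compound by direct addition to floodwater 3 cm deep, kept at that level. Scored visually at 13–15 d versus controls (0 no effect; 100 complete control).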

[18] = system: ducksalad (Heteranthera limosa); experiment: Test B flooded paddy test; details: Flood, 250 g ai/ha; 0 to 100 scale where 0 is no effect and 100 is complete control; 13 to 15 d
Method in brief: as §2

[19] = system: rice (Oryra sativa); experiment: Test B flooded paddy test; details: Flood, 250 g ai/ha; 0 to 100 scale where 0 is no effect and 100 is complete control; 13 to 15 d
Method in brief: as §2

[20] = system: sedge, umbrella (small-flower umbrella sedge, Cyperus difformis); experiment: Test B flooded paddy test; details: Flood, 250 g ai/ha; 0 to 100 scale where 0 is no effect and 100 is complete control; 13 to 15 d
Method in brief: as §2

[21] = 125 g ai/ha, postemergence, visual injury rating on 0 to 100 scale (0 no effect, 100 complete control), approx. 10 d
[22] = Postemergence, 500 g ai/ha, 0 to 100 scale where 0 is no effect and 100 is complete control
[23] = 125 g ai/ha, postemergence, visual rating after approx. 10 d, 0 to 100 scale (0 no effect, 100 complete control)

SMILES	Plant response rating, Kochia [1]	Kochia plant response rating (0 to 100 scale, 0 is no effect, 100 is complete control) [1]	Plant response rating, Barnyardgrass [2]	Barnyardgrass plant response rating (0 to 100 scale, 0 is no effect, 100 is complete control) [2]	Plant response rating, Foxtail, Giant [3]	Foxtail, Giant plant response rating (0 to 100 scale, 0 is no effect, 100 is complete control) [3]	Plant response rating, Pigweed [4]	Pigweed plant response rating (0 to 100 scale, 0 is no effect, 100 is complete control) [4]	Plant response rating, Ragweed [5]	Ragweed plant response rating (0 to 100 scale, 0 is no effect, 100 is complete control) [5]	Plant response rating, Ryegrass, Italian [6]	Ryegrass, Italian plant response rating (0 to 100 scale, 0 is no effect, 100 is complete control) [6]	Plant response rating, Galium [7, 22]	Plant response rating, Kochia [8, 22]	Plant response rating, Barnyardgrass [9, 22]	Plant response rating, Blackgrass [10, 22]	Plant response rating, Corn [11, 22]	Plant response rating, Foxtail, Giant [12, 22]	Plant response rating, Pigweed [13, 22]	Plant response rating, Ragweed [14, 22]	further results
O=C1NCC(c2cc(F)cc(Cl)c2)C1C(=O)Nc1ccccc1F (stereo not drawn) [Compound 491]	0	20	90	90	90	90	0	0	0	0	20	30	30	20	80	50	90	80	20	20	Galium plant response rating [7, 21]: 0; Kochia plant response rating [8, 21]: 0; Barnyardgrass plant response rating [9, 21]: 90; Blackgrass plant response rating [10, 21]: 20; Corn plant response rating [11, 21]: 60; Foxtail, Giant plant response rating [12, 21]: 80; Pigweed plant response rating [13, 21]: 0; Ragweed plant response rating [14, 21]: 0; Ryegrass, Italian plant response rating [15, 21]: 0; Plant response rating, Ryegrass, Italian [15, 22]: 30; Wheat plant response rating [16, 21]: 30; Plant response rating, Wheat [16, 22]: 60; Plant response rating, Barnyardgrass [17]: 0; Plant response rating, Ducksalad [18]: 40; Plant response rating, Rice [19]: 0; Plant response rating, Sedge, Umbrella [20]: 0
O=C1NCC(c2ccsc2Br)C1C(=O)Nc1cccc(F)c1F (stereo not drawn) [Compound 598]	0	0	0	60	0	60	0	0	0	0	0	20	30	20	80	0	0	20	0	20	Plant response rating, Galium [7, 23]: 0; Plant response rating, Kochia [8, 23]: 0; Plant response rating, Barnyardgrass [9, 23]: 10; Plant response rating, Blackgrass [10, 23]: 0; Plant response rating, Corn [11, 23]: 0; Plant response rating, Foxtail, Giant [12, 23]: 0; Plant response rating, Pigweed [13, 23]: 0; Plant response rating, Ragweed [14, 23]: 0; Plant response rating, Ryegrass, Italian [15, 23]: 0; Plant response rating, Ryegrass, Italian [15, 22]: 0; Plant response rating, Wheat [16, 23]: 0; Plant response rating, Wheat [16, 22]: 0; Plant response rating, Barnyardgrass [17]: 0; Plant response rating, Ducksalad [18]: 65; Plant response rating, Rice [19]: 0; Plant response rating, Sedge, Umbrella [20]: 0

Source: patent US12077503B2, “Substituted cyclic amides and their use as herbicides” (FMC CORPORATION, priority 2015, dated 2024)
